Assay results taken from patent US12239641B2, “Methods of treating or preventing fibrosis in non-alcoholic fatty liver disease” (priority 2018, dated 2025).
“Also recorded” adds a separate entry of the source.

Key:
[1] = test system: Primary human hepatic stellate cells; experiment: 3D collagen gel contraction of hepatic stellate cells; assay type: cell-based; settings: 6 hours
Excerpt: Primary human HSCs (huHSC) were isolated from wedge sections of liver tissue obtained from patients with no history of liver disease undergoing liver resection for colorectal metastasis in the Royal Free Hospital, with local Tissue act for patient benefit ethics approval. All the participants provided written informed consent in accordance with the Helsinki Declaration.
Cells isolation in brief: 10 g of total human liver tissue was digested with 0.01% Collagenase, 0.05% Pronase and 0.001% DNase I without performing perfusion. The homogenate was filtered through a 100 µm cell strainer (BD Biosciences) and the flow-through was centrifuged at 50×g for 2 minutes at 4° C. After washing the supernatant, gradient centrifugation was performed at 1400×g for 17 minutes at 4° C. using an 11.5% Optiprep gradient (Sigma-Aldrich Company Ltd.). Finally, the interface was collected and washed. […]
Human and rat HSCs were cultured within 3D collagen gels (Fibroblast-populated collagen lattices; FPCL). […] Gel areas were measured using ImageJ v1.49 software (US National Institutes of Health, Bethesda MD, USA, http://imagej.nih.gov/ij/).

[2] = test system: rat model of NASH induced by a high fat high cholesterol (HFHC) diet; experiment: Rat model of NASH induced by HFHC diet: liver weight, fat, AST, histology scores, fibrosis; assay type: in vivo, Sprague Dawley rats
Excerpt: (§1) Animals were studied after 16 weeks of feeding.

[3] = test system: noradrenaline (Norepinephrine—NE); experiment: Noradrenaline levels (HPLC) in HFHC NASH rats; assay type: in vivo, Sprague Dawley rats; settings: HFHC+YoHCl vs HFHC
Excerpt: as §1

[4] = test system: Genes involved in fibrogenesis (TIMP-1 and Collal), MMP2; experiment: Expression of genes involved in fibrogenesis in HFHC NASH rats; assay type: in vivo, Sprague Dawley rats
Excerpt: as §1

[5] = test system: cytokines and chemokines (Cx3CL1, CxCL5, CCL3); experiment: Cytokines and chemokines (ELISA) in HFHC NASH rats; assay type: in vivo, Sprague Dawley rats
Excerpt: as §1

[6] = test system: ADRA2A receptors; settings: HFHC+YoHCl vs HFHC
Experimental: Sprague Dawley rats (240-300 g) were randomly divided into 3 groups (Standard diet, HFHC+placebo, HFHC+Yohimbine). The animals were kept under controlled temperature (20±2° C.) and light (lights on at 08:00-20:00). The standard diet was composed of the following energy sources: 67 g carbohydrates (70 kcal %), 4 g fat (10 kcal %), and 19 g protein (20 kcal %) per 100 g diet. The HFC diet contained 19 g carbohydrates (15 kcal %), 39 g fat (65 kcal %), 2 g cholesterol, and 27 g protein (20 kcal %) per 100 g diet. The study was performed in accordance with local and national guidelines for animal welfare and approved by the institutional Animal Ethics Committee.
Animals were studied after 16 weeks of feeding. Animals in the HFHC group were randomised after 8 weeks of feeding to either treatment with placebo or Yohimbine, in addition to their ongoing diets. Yohimbine Hydrochloride (Product Number Y3125, Sigma-Aldrich, Dorset, UK), an ADRA2A antagonist, was administered in the drinking water at a dosage of 0.4 mg/kg rat/day. In the placebo treated group, an equivalent volume of water was administered. The rats were weighed daily and the Yohimbine treatment weight adjusted.
At the end of 16 weeks of feeding, rats were exsanguinated and the blood and tissues harvested and stored at −80 C for subsequent analyses. […]

[7] = test system: working memory; experiment: Working memory test in HFHC NASH rats; assay type: in vivo, Sprague Dawley rats; settings: HFHC diet 16 weeks, Yohimbine for the last 8 weeks vs placebo
Excerpt: as §1
Working memory and behavioural testing was through standard psychometric assessments before termination, such as application of the Barnes Maze.

[8] = target: T1, ADRA2a (Homo sapiens, UniProt P08913); settings: some affinity for all; cited from earlier work
T1 sequence (P08913 1-465): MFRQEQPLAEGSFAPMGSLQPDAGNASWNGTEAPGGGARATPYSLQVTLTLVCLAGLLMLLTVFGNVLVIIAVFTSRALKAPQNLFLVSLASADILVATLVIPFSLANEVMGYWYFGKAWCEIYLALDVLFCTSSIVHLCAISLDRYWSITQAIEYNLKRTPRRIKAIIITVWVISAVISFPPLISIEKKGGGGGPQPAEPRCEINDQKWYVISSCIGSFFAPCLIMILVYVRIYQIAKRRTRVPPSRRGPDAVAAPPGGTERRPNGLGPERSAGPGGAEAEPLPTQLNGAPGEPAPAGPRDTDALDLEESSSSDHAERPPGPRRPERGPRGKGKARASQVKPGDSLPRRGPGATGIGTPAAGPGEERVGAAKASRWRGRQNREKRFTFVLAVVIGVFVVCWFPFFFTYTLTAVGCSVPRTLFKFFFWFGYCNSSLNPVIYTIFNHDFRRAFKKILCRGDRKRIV

[9] = compared with Yohimbine; cited from earlier work
[10] = H&E liver, HFHC+YoHCl (n=9) vs HFHC (n=6), 8 weeks treatment
[11] = HFHC model, Yohimbine therapy for 8 weeks, p=0.03

With `CC1c2ccccc2CN1CC1=NCCN1` (stereo not shown) [BRL44408] the “contraction in a 3D collagen gel” value ([1]; 5 uM Guanfacine and 5 uM BRL44408 vs guanfacine alone) was “less contraction”.
In the case of `COC(=O)[C@@H]1[C@H]2C[C@H]3c4[nH]c5ccccc5c4CCN3C[C@@H]2CC[C@@H]1O` [Yohimbine], the hepatic inflammation score [2, 10] is reported as “significant reduction”, the hepatic steatosis score [2, 10] is reported as “significant reduction” and the hepatocyte ballooning score [2, 10] is reported as “significant reduction”. For the same molecule, the “non-alcoholic fatty liver disease (NAFLD) activity score (NAS)” value [2, 10] was “significant reduction”, the “fibrosis (Picro sirius red stained liver)” value ([2]; HFHC NASH rats with Yohimbine vs without treatment) was “visually decreased” and the “Collagen proportionate area (CPA)” value ([2]; HFHC NASH rats with Yohimbine vs without treatment, n=6 per group, HFHCD vs HFHCD_YoHCl p=0.016) was “reduced”. For the same molecule, the liver fat ([2]; HFHC diet 16 wks, Yohimbine for last 8 weeks) was “reduced”, the Liver-body weight ratio ([2]; HFHC diet 16 wks, Yohimbine for last 8 weeks, 0.4 mg/kg rat/day in drinking water, HFHCD vs HFHCD_YoHCl p=0.014) was “restored” and the “AST (liver injury)” value ([2]; HFHC rats after 8 weeks of Yohimbine therapy, HFHCD vs HFHCD_YoHCl p=0.007) was “decreased”. The “Levels of noradrenaline (NE)” value [3] was “further but non-statistical increase”, the Collal gene expression [4, 11] was “significantly (p=0.03 for both) reduced” and the TIMP-1 gene expression [4, 11] was “significantly (p=0.03 for both) reduced”. For the same molecule, the MMP2 expression ([4]; HFHC rats, Yohimbine hydrochloride therapy) was “reduced”, the CCL3 protein expression ([5]; HFHC+YoHCl (8 weeks) vs HFHC) was “decrease markedly” and the Cx3CL1 protein expression ([5]; HFHC+YoHCl (8 weeks) vs HFHC) was “decrease markedly”. For the same molecule, the CxCL5 protein expression ([5]; HFHC+YoHCl (8 weeks) vs HFHC) was “decrease markedly”, the “cytokines and chemokines (liver and systemic inflammation)” value ([5]; HFHCD_YoHCl vs HFHCD, 16 weeks diet) was “reduced liver and systemic inflammation” and the “ADRA2A receptor expression in liver tissue” value [6] was “does not significantly reduce”. The working memory [7] was “significantly improved; also recorded: improves” and the “selectivity among ADRA2 subtypes” value [8] was “most selective for ADRA2a”.
In the case of `COC(=O)[C@H]1[C@H]2C[C@H]3c4[nH]c5ccccc5c4CCN3C[C@H]2CC[C@@H]1O` [Rauwolscine], the “selectivity among ADRA2 subtypes” value [8] is listed as “most selective for ADRA2a”.
For `N=C(N)NC(=O)Cc1c(Cl)cccc1Cl` [Guanfacine], the “contraction in a 3D collagen gel” value ([1]; 5 uM Guanfacine vs serum free medium) was “significantly greater contraction”.
For `COC(=O)[C@@H]1[C@H]2C[C@H]3c4[nH]c5cc(O)ccc5c4CCN3C[C@@H]2CC[C@@H]1O` [11-OH Yohimbine], the half life [9] is given as “longer half life” and the oral bioavailability [9] is given as “better oral bioavailability”.
